In patent US6843784B2, “Triclosan and silver compound containing medical devices” (priority 1999, dated 2005):
Values joined by “and” are separate entries in the source; they are usually repeats but may differ in a detail not shown here. Equal entries are not always repeated. Where two headings read alike, the source gives them in different places.

Test system: S. aureus
Assay type: cell-based

Oc1cc(Cl)ccc1Oc1ccc(Cl)cc1Cl [Triclosan, 2,4,4′-trichloro-2′-hydroxydiphenyl ether]
Growth in Culture: 2 × 10^7 cfu/ml and 1.2 × 10^7 cfu/ml | reduction in growth in culture (0.5 percent triclosan alone (Table 4 experiment)): 0 log | Growth in Culture (Solution: Triclosan 0.25%, Silver Sulfadiazine 0%, after 10 minutes, control 2.1 × 10^7): 1.2 × 10^7 cfu/ml | Growth in Culture (Solution: Triclosan 0.5%, Silver Sulfadiazine 0%, after 10 minutes, control 2.1 × 10^7): 1 × 10^7 cfu/ml | reduction in growth in culture compared to the control (triclosan alone at 0.25 percent (Table 3 experiment)): less than a power of 10 | reduction in growth in culture compared to the control (triclosan alone at 0.5 percent (Table 3 experiment)): less than a power of 10
